Data as given in the supplement of paper PMC10307832.

How the values were obtained:
Assay in all cases: relative viability (nuclei count vs DMSO), 5 days (fraction); higher = more cells survive
[1] = compound: CS(=O)(=O)CCNCc1ccc(-c2ccc3ncnc(Nc4ccc(OCc5cccc(F)c5)c(Cl)c4)c3c2)o1 [Lapatinib]
Summary of the method: (§1)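 Following overnight incubation at 37 °C, lung cancer cell lines in 1536-well plates were pinned with five library-drug doses (not always all listed) in √10 steps on vehicle-anchored plates. The cells then spent 5 days without medium change before a combined fix, permeabilisation and Hoechst stain, 4× imaging and MetaXpress nuclear counts. Viability is the treated-to-vehicle ratio of nuclei, taken as the median across plates. Only plates with control CV below 25% and at least one doubling passed.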

[2] = compound: CC1=NC=CC(=C1)C2=CC=C(C=C2)CC(=O)NC3=CC=C(C=C3)C4=CN=CC=C4 [Wnt-C59]
Summary of the method: as §1

[3] = compound: CC1=NC=CC(=C1)C2=CC=C(C=C2)CC(=O)NC3=CC=C(C=C3)C4=CN=CC=C4 [Wnt-C59] + COc1cccc2cc(-c3nc([C@H]4CC[C@H](C(=O)O)CC4)n4ncnc(N)c34)[nH]c12 [OSI-027] (partner 0.5 µM)
Summary of the method: (§2)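 Each reported value is a median over duplicate plates. It expresses relative viability: treated-well nuclei count divided by vehicle-well nuclei count. Lung cancer cell lines in 1536-well plates were dosed by pin tool a day after seeding, alone with one drug or with a fixed anchor-drug dose plus five library-drug doses (not always all listed) in √10 steps, and nuclei were counted after 5 days.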

[4] = compound: CC1=NC=CC(=C1)C2=CC=C(C=C2)CC(=O)NC3=CC=C(C=C3)C4=CN=CC=C4 [Wnt-C59] + CCNC(=O)c1noc(-c2cc(C(C)C)c(O)cc2O)c1-c1ccc(CN2CCOCC2)cc1 [Luminespib] (partner 0.01 µM)
Summary of the method: as §2

| Cell Line | relative viability ([1]; 0.02 µM) | relative viability ([1]; 0.06325 µM) | relative viability ([1]; 0.2 µM) | relative viability ([1]; 0.6325 µM) | relative viability ([1]; 2 µM) | relative viability ([1]; 2 µM, anchor plate) | relative viability ([2]; 0.001 µM) | relative viability ([2]; 0.01 µM) | relative viability ([2]; 0.03162 µM) | relative viability ([2]; 0.1 µM) | relative viability ([3]; first compound 0.001 µM) | relative viability ([3]; first compound 0.01 µM) | relative viability ([3]; first compound 0.03162 µM) | relative viability ([3]; first compound 0.1 µM) | relative viability ([4]; first compound 0.001 µM) | relative viability ([4]; first compound 0.01 µM) | relative viability ([4]; first compound 0.03162 µM) | relative viability ([4]; first compound 0.1 µM) |
| --- | --- | --- | --- | --- | --- | --- | --- | --- | --- | --- | --- | --- | --- | --- | --- | --- | --- | --- |
| EKVX | 0.645 | 0.755 | 0.943 | 0.811 | 0.336 | 0.216 | 1.03 | 0.759 | 1.01 | 0.832 | 0.728 | 0.574 | 0.648 | 0.565 | 0.952 | 0.824 | 0.857 | 0.704 |
| NCI-H596 |  | 0.939 | 0.967 | 1.14 | 0.919 | 1.03 | 0.93 | 0.936 | 1.12 | 1.06 | 0.733 | 0.499 | 0.952 | 0.719 | 1.14 | 1.08 | 1.06 | 1.06 |
| NCI-H1975 | 0.968 | 0.8 | 0.904 | 0.936 | 0.77 | 0.946 | 0.901 | 0.896 | 0.968 | 0.988 | 0.685 | 0.555 | 0.855 | 0.713 | 0.347 | 0.28 | 0.217 | 0.143 |
| A549 | 0.982 | 0.875 | 0.867 | 0.957 | 0.861 | 0.993 | 0.966 | 0.978 | 1.01 | 0.893 |  |  |  |  |  |  |  |  |
| HCC-78 |  | 0.734 | 0.922 | 0.935 | 0.793 | 0.801 | 0.814 | 1.02 | 0.99 | 1.12 | 0.389 | 0.364 | 0.366 | 0.411 |  |  |  |  |
| H3255 | 0.908 | 0.936 | 0.938 | 0.889 | 0.489 | 0.25 | 1.03 | 0.887 | 1.06 | 0.966 | 0.683 | 0.58 | 0.685 | 0.545 | 0.94 | 0.884 | 1.04 | 0.919 |
| RERF-LC-KJ | 0.992 | 0.88 | 0.905 | 0.826 | 0.737 | 0.861 | 1 | 0.978 | 1.09 | 0.987 | 0.599 | 0.504 | 0.658 | 0.56 | 1.2 | 1.38 | 1.23 | 1.18 |
| HCC-44 | 0.602 | 0.997 | 0.983 | 1.03 | 0.893 | 1.02 | 1.04 | 0.972 | 0.979 | 1.04 | 0.768 | 0.671 | 0.538 | 0.608 | 1.18 | 1.2 | 0.897 | 0.997 |
| NCI-H1648 | 0.671 | 0.667 | 0.548 | 0.625 | 0.392 |  | 0.881 | 1.06 | 1.05 | 0.9 | 0.292 | 0.285 | 0.292 | 0.246 |  |  |  |  |
| NCI-H1299 | 0.985 | 1.02 | 1 | 0.99 | 1.01 | 0.95 | 1.03 | 1.03 | 1.03 | 1.01 |  |  |  |  |  |  |  |  |
